# Results taken from paper PMC6554712 (Biochemistry, 2018).
# B1: Fom3 (Streptomyces fradiae) (protein)
# chain: MTIGSLGSTEFALHGKPAIRWGDLPQRVGKKASRRYQKVLLLNPSATLFRHDLPRCTYPLGLGYIAAVLEKYDYEVKILDVFAEGYYNAQPVDGDEQFLRYGLSDDDIVKVIKEFAPDVIGISSIFSNQADNVHHLLKLADLVAPEAVTSIGGAHARYFPKACLDDPNLDAVFLGEGEMTFLLWLEHLNGNVREDEVHGIAWRDRDGKIQIKPELPLISSMRPEGPEQGKSSPMLSMAGELDHIPFPAWHHYNMEKYFEIKAYQSPYTVGSRVGQLYTSRGCTAHCTFCTTTHFWGQKLRRRSVDNVVNEVLRLRDEYGIDEFHIQDDNITNDMDHARELFRAFKEVGLPWATPQGTALWRMDEELLDLMAESGAYQVTFAIESGVQRVLKDLIKKPLNLGRTSHLIKYARSLGMHVHGFFIIGMPPMFGNAGESIEEMQASYDYAEESGFSSASFFAASPIVGSELLRECIRQGFVDPEESLYRMTYKQGIINVPGLWDGEEIAELAAKFNRDFNARRDRDYTPQKQWNANQY
# Tests used:
# Fom3 = Fom3 (Streptomyces fradiae, UniProt D2SNF5); assay: Mössbauer spectroscopy of […]-labelled enzyme; assay type: binding; details: 4.2 K, 53 mT; binds to the [4Fe-4S] cluster
# FomD = FomD (Streptomyces fradiae, UniProt D2SNF7); assay: […]-NMR hydrolysis assay; assay type: biochemical; details: 100 μM FomD, 6 mM racemic HPP-CMP
# FomD, sequence (D2SNF7 whole entry): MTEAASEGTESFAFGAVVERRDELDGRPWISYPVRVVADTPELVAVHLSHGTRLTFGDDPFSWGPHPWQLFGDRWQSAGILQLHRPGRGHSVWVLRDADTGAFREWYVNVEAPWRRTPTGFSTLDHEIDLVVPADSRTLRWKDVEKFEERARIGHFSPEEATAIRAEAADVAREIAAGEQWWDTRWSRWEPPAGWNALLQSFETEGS
# [1] = substrate: Nc1ccn([C@@H]2O[C@H](COP(=O)(O)OP(=O)(O)CCO)[C@@H](O)[C@H]2O)c(=O)n1; assay: steady-state kinetics, HPP-CMP formation by LC-MS/MS; assay type: biochemical, Streptomyces fradiae; details: 1 μM Fom3, SAM, Ti(III)citrate as reductant, anaerobic
molecule,measurement,setting,value
C[S+](CC[C@H](N)C(=O)O)C[C@H]1O[C@@H](n2cnc3c(N)ncnc32)[C@H](O)[C@@H]1O (stereo partly shown) [SAM],Mössbauer spectroscopy of 57Fe-labelled enzyme,Fom3,Upon incubating as-isolated Fom3 with SAM
CC(O)CP(=O)(O)OP(=O)(O)OC[C@H]1O[C@@H](n2ccc(N)nc2=O)[C@H](O)[C@@H]1O (stereo partly shown) [HPP-CMP],31P-NMR hydrolysis assay,FomD,FomD from S. fradiae was overproduced and purified and then used in a reaction
B1,Km,[1],74 µM
same,kcat,[1],~0.013 s⁻¹
